Experimental findings from the supplement of paper PMC4862054 are described below.

Test [1] deals with MDA-MB-231. The test is described as follows: drug sensitivity score (DSS), CellTox Green (DSS (AUC-based score)); higher = stronger drug effect (viability inhibition or cytotoxicity); extreme values may be limits of the assay. Conditions: incubation time: 72 h. The gist of the method:
(§1)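 Using 20 µl of cell suspension per well, breast cancer cell lines were seeded into 384-well plates pre-loaded with compound at 5 concentrations in 10-fold steps across a compound-specific 10,000-fold range. Incubation lasted 72 h, after which CellTox Green fluorescence at 485/520 nm and then CellTiter-Glo luminescence, following 10 min at room temperature, were recorded. Each plate was normalised to 0.1 % DMSO and a positive kill control before the drug sensitivity score was derived from the area under the fitted dose-response curve.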

A further test relates to MFM-223. Described as above. Conditions: incubation time: 72 h. In short, it runs like this:
as §1

The subject of test [2] is CAL-85-1. Described as above. Conditions: incubation time: 72 h. The gist of the method: as §1
For another test, the system named is CAL-51. The test is described as above. Conditions: incubation time: 72 h. In short, it runs like this:
as §1

In test [3] the test system is CAL-120. The description is as above. The settings on record: incubation time: 72 h. The gist of the method: as §1
The test system of test [4] is MDA-MB-453. The description is as above. The settings on record: incubation time: 72 h. The gist of the method: as §1
Test [5] deals with HDQ-P1. Described as above. The settings on record: incubation time: 72 h. The gist of the method:
as §1

The next test deals with CAL-148. Described as above. Conditions: incubation time: 72 h. The gist of the method: as §1
For the next test, the system named is MCF-10A. The test is described as above. The settings on record: incubation time: 72 h. In short, it runs like this: as §1
Test [6] deals with HCC1143. Described as above. Conditions: incubation time: 72 h. In short, it runs like this: as §1
Test [7] deals with MDA-MB-468. The description is as above. Conditions: incubation time: 72 h. The gist of the method: as §1
For test [8], the system named is Hs578T. Described as above. The settings on record: incubation time: 72 h. The gist of the method:
as §1

The test system of the next test is HCC1937. Nature of the test: normalised viability (% of control), CellTiter-Blue; higher = more viable cells (100 = DMSO, 0 = benzethonium chloride kill control). Conditions: incubation time: 72 h. Here is the method:
(§2)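 DSRT, CellTiter-Blue viability, 72 h incubation. Signal is normalised to DMSO and benzethonium chloride controls. Value is the normalised response at dose 1.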
In general terms: Alamar Blue is a resazurin reagent that responds to reducing activity.

Test [9] has as its system MDA-MB-231. Described as above. Conditions: incubation time: 72 h. As for the experimental part: as §2
The subject of the next test is MDA-MB-436. The description is as above. Conditions: incubation time: 72 h. Here is the method:
as §2

Another test concerns DU-4475. The description is as above. The settings on record: incubation time: 72 h. Here is the method: as §2
Test [10] has as its system CAL-85-1. The test is described as above. The settings on record: incubation time: 72 h. Here is the method: as §2
Test [11] deals with CAL-120. Described as above. Conditions: incubation time: 72 h. Here is the method: as §2
The next test deals with BT-549. Described as above. The settings on record: incubation time: 72 h. As for the experimental part: as §2
The subject of test [12] is MDA-MB-453. The test is described as above. Conditions: incubation time: 72 h. As for the experimental part:
as §2

Test [13] concerns HDQ-P1. Described as above. The settings on record: 0.1 nM; incubation time: 72 h. As for the experimental part: as §2
The test system of another test is HCC1599. Described as above. The settings on record: incubation time: 72 h. As for the experimental part:
as §2

Test [14] relates to MDA-MB-468. The test is described as above. The settings on record: incubation time: 72 h. Here is the method:
as §2

Test [15] relates to Hs578T. The test is described as above. Conditions: incubation time: 72 h. Here is the method: as §2
In another test the test system is SK-BR-3. The test is described as above. The settings on record: incubation time: 72 h. Here is the method: as §2
The subject of test [16] is HCC1143. Described as above. Conditions: incubation time: 72 h. Here is the method: as §2
Another test relates to BT-474. Described as above. Conditions: 0.1 nM; incubation time: 72 h. Here is the method: as §2

“And” between values parts separate entries of the source, which are not always exact repeats. Equal values may be shown once.

Regarding `Cn1c(=O)n(-c2ccc(C(C)(C)C#N)cc2)c2c3cc(-c4cnc5ccccc5c4)ccc3ncc21` [Dactolisib], the drug sensitivity score in the test with MDA-MB-231 [1] stood at 0; with MFM-223, 2.01; in the test with CAL-85-1 [2], 2.63; in the test with CAL-51, 0; in the test on CAL-120 [3] it was 0; in the test with MDA-MB-453 [4], 0. Also, the drug sensitivity score with HDQ-P1 [5] turned out to be 0; in the test with CAL-148, 11.7; in the test on MCF-10A, 0; with HCC1143 [6], 0; in the test on MDA-MB-468 [7], 0; in the test with Hs578T [8], 0.
As for `CO[C@H]1C[C@@H]2CC[C@@H](C)[C@@](O)(O2)C(=O)C(=O)N2CCCC[C@H]2C(=O)O[C@H]([C@H](C)C[C@@H]2CC[C@@H](OCCO)[C@H](OC)C2)CC(=O)[C@H](C)/C=C(\C)[C@@H](O)[C@@H](OC)C(=O)[C@H](C)C[C@H](C)/C=C/C=C/C=C/1C` [Everolimus], the normalised viability in the test with HCC1937 (0.1 nM) is 58% and 70.5%; in the test on MDA-MB-231 [9] (0.1 nM) it was 94.9% and 73.3%; in the test with MDA-MB-436 (0.1 nM), 104% and 86.3%; with DU-4475 (0.1 nM) it was 106% and 105%; in the test with CAL-85-1 [10] (0.1 nM), 89.2% and 76.6%; with CAL-120 [11] (0.1 nM), 97.4% and 80.8%. Moreover, the normalised viability is 81% and 93% in the test with BT-549 (0.1 nM); 93.7% and 90% in the test on MDA-MB-453 [12] (0.1 nM); 87.3% and 89.8% with HDQ-P1 [13]; 101% with HCC1599 (0.1 nM); 105% and 87.7% in the test on MDA-MB-468 [14] (0.1 nM); 58.9% and 73.8% with Hs578T [15] (0.1 nM). The normalised viability in the test with SK-BR-3 (0.1 nM) was 95.7% and 89.7%. Also, the drug sensitivity score stood at 0 in the test on MDA-MB-231 [1]; 5.95 in the test with MFM-223; 0 in the test with CAL-85-1 [2]; 0 in the test on CAL-51; 0 in the test with CAL-120 [3]; 0 in the test on MDA-MB-453 [4]. In addition, the drug sensitivity score in the test on HDQ-P1 [5], in the test on CAL-148, with MCF-10A, in the test with HCC1143 [6], with MDA-MB-468 [7] and in the test on Hs578T [8] was 0 throughout.
Turning to `Cc1ccc(NC(=O)c2ccc(CN3CCN(C)CC3)cc2)cc1Nc1nccc(-c2cccnc2)n1` [Imatinib], the normalised viability is 81.9% and 101% in the test with HCC1937 (1 nM); 90.8% and 95.5% in the test with MDA-MB-231 [9] (1 nM); 90.1% and 106% in the test with MDA-MB-436 (1 nM); 99% and 111% in the test with DU-4475 (1 nM); 87.5% and 85.1% in the test with CAL-85-1 [10] (1 nM); 88.5% and 91% in the test with CAL-120 [11] (1 nM). The normalised viability in the test on BT-549 (1 nM) was 104% and 116%; in the test with MDA-MB-453 [12] (1 nM), 106% and 102%; in the test on HCC1599 (1 nM), 109% and 104%; with HCC1143 [16] (1 nM) it was 88.9% and 93%; in the test on MDA-MB-468 [14] (1 nM) it was 102% and 105%; in the test on Hs578T [15] (1 nM), 99.3% and 102%. The normalised viability in the test on SK-BR-3 (1 nM) was 89.3% and 102%. For the same molecule, the drug sensitivity score is 0 in the test with MDA-MB-231 [1]; 0 in the test on MFM-223; 0 in the test with CAL-85-1 [2]; 0 in the test on CAL-51; 0 with CAL-120 [3]; 6.17 in the test on MDA-MB-453 [4]. Further, the drug sensitivity score was determined as 0 in the test with HDQ-P1 [5]; 0 in the test with CAL-148; 0 in the test on MCF-10A; 0 in the test on HCC1143 [6]; 0 with MDA-MB-468 [7]; 0.401 with Hs578T [8].
Take `Nc1nc(OCc2cc(Br)cs2)c2[nH]cnc2n1` [Lomeguatrib]: the drug sensitivity score in the test with MDA-MB-231 [1], in the test on MFM-223, with CAL-85-1 [2], in the test with CAL-51, in the test with CAL-120 [3] and in the test on MDA-MB-453 [4] was 0 in each case. For the same molecule, the drug sensitivity score in the test on HDQ-P1 [5], in the test on CAL-148, in the test on MCF-10A, in the test on HCC1143 [6], in the test with MDA-MB-468 [7] and with Hs578T [8] was 0 in each case.
For `Cn1c(=O)n(-c2ccc(C(C)(C)C#N)cc2)c2c3cc(-c4cnc5ccccc5c4)ccc3ncc21` [NVP-BEZ235], the normalised viability is 95.9% in the test with HCC1937 (0.1 nM); 111% with MDA-MB-231 [9] (0.1 nM); 119% in the test on MDA-MB-436 (0.1 nM); 129% in the test with DU-4475 (0.1 nM); 96.9% in the test on CAL-85-1 [10] (0.1 nM); 96.6% in the test on CAL-120 [11] (0.1 nM). Also, the normalised viability was 112% in the test with BT-549 (0.1 nM); 96.8% with MDA-MB-453 [12] (0.1 nM); 105% with BT-474; 113% in the test with HDQ-P1 [13]; 125% with HCC1599 (0.1 nM); 98.9% with HCC1143 [16] (0.1 nM). For the same molecule, the normalised viability with MDA-MB-468 [14] (0.1 nM) worked out at 108%; in the test with Hs578T [15] (0.1 nM), 105%; in the test with SK-BR-3 (0.1 nM), 100%.
